Each block holds one molecule with its values, some of them ahead of it.
Tests used:
mature human osteoclasts = test: osteoclast-mediated resorption of mineralized matrix; format: cell-based
Method: The study was carried out following the method below: CD15+ monocytes (osteoclast precursor cells) were cultivated for 3 days in a proliferation medium (Igla α-modified minimum essential medium/fetal calf serum (aMEM/FCS), 10% with 25 ng/ml of macrophage colony-stimulating factor (M-CSF)). During this stage M-CSF promoted proliferation and expression of a receptor activator of nuclear factor KB (RANK, cappa-B, type I membrane protein). The proliferation medium was removed and cells were differentiated in a differentiation medium (aMEM/FCS-10% with 100 ng/ml of RANKL and 25 ng/ml of M-CSF). When mature osteoclasts were detected in the culture (day 4 of the study), the cells were collected and re-inoculated into a 96-well plate coated with a synthetic mineralized matrix. Cultivation continued for 48 hours (at presence of the studied compounds) to evaluate osteoclast resorption. Then number of mature osteoclasts and the resorption degree were evaluated. An effect of 4-methylbenzenesulfonic acid and Compound 1 salt concentration on concentration and resorption degree of mature osteoclasts was evaluated in comparison with control samples ([…] control, 0.3% DMSO solvent) and reference inhibitors, i.e., saracatinib and bosutinib (see FIG. 18).

[1] = solubility of the primary base in selected organic solvents; format: physicochemical; settings: organic solvent or mixture, thermodynamic from solid
Method: At the first stage solubility of the primary base in the selected organic solvents was studied. Maximum volume of a solvent for this study was selected as 10 ml per 100 mg of the base taking into consideration the subsequent process scaling.

[2] = target: human recombinant tyrosine c-Src kinase (Homo sapiens, UniProt P12931); test: human kinase enzymatic activity in vitro (33P-ATP, peptide substrate); format: biochemical
Method: (§1) The Compound 1 effect on the human recombinant tyrosine c-Src kinase was measured as follows: a peptide substrate was dissolved in a reaction buffer ad 0.2 mg/ml concentration. A solution of recombinant c-Src kinase was added to 2 nM concentration and the studied compound to the required concentration (within the range of 1 nM to 10 μM) was added. A solution of ^33P-ATP was added to 10 μM concentration (final specific activity of the solution is 0.01 μCi). After 120 minutes of incubation, the reaction mixture was applied on ion-exchange paper, which was rinsed with a plenty of phosphoric acid. A reaction extent was determined based on radioactivity of the reaction products.

[3] = pKa of protonated pyridine nitrogen; format: physicochemical; settings: protonated nitrogen atom of pyridine
Text: To obtain a form having optimal biological and physical properties, various salt forms of the Compound 1 was synthesized. A primary goal of the salt form optimization was to obtain a Compound 1 salt form having the following properties: crystallinity, composition stability, therapeutic efficacy, safety, ease of production process scalability, using a pharmacologically acceptable counterion (preferably anion), and using low toxicity organic solvents. The salt forms of Compound 1 were obtained with organic solutions of high polarity and low toxicity (Class 3). The counterions were used based on pharmacological acceptance and high acid strength (pKa not exceeding 3.25). The requirement for the high acid strength is conditioned by the fact that a protonated nitrogen atom of pyridine of the Compound 1 is a weak base having pKa 4.

[4] = pharmacokinetics in blood plasma after oral administration in Wistar rats; settings: Wistar, rat, in vivo, po, 30 mg/kg
Method: At the first stage, pharmacokinetics of the Compound 1 free base was studied after oral administration in Wistar rats at dosage of 30 mg/kg.
Pharmacokinetics of several Compound 1 salt forms was studied after oral administration in Wistar rats at a dose of 37 mg/kg (30 mg/kg equivalent to a free base).

[5] = tested on: chondrocytes from knee joint cartilage of young rats; test: IL-1β-induced hypertrophic changes in chondrocytes (aggrecan expression); format: cell-based, rats (Sprague Dawley)
Method: The study was carried out following the method below: chondrocytes were isolated from a knee joint cartilage of young rats (aged 3 weeks, Sprague Dawley line). The isolated chondrocytes in a cultural medium (Dulbecco's modified Igla minimum essential medium/fetal calf serum (DMEM/FCS), 10%, 4-(2-hydroxyethyl)-1-piperazine ethanesulfonic acid (HEPES), 25 mM) was stored frozen at −80° C. The obtained chondrocytes were unfrozen a day before the experiment, inoculated into 12-well plates and cultured as a monolayer during 24 hours. After 24 hours of incubation IL-1β-induced activation of chondrocytes and treatment with the studied compounds was started and continued for 3 days.

[6] = pharmacokinetics in blood plasma after oral administration in Wistar rats; settings: rat, in vivo, 21 mg/kg
[7] = tested on: Sprague-Dawley rat models of osteoarthritis induced by intra-articular introduction of sodium iodoacetate; test: mechanical allodynia test with von Frey filaments in osteoarthritis induced by sodium iodoacetate; format: in vivo
Method: The intra-articular introduction of aerobic glycolysis inhibitor (sodium iodoacetate) results in death of chondrocytes and acute inflammatory reaction in a synovial cavity. In absence of treatment, at day 10 from the pathology induction an onset of chronic pain is observed due to cartilage destruction and development of chronic inflammation in particular cases [J Musculoskel Neuron Interact 2001; 1(4):363-376]. Extent of osteoarthritis development in rats was evaluated by comparison of extremity pain sensitivity threshold after the introduction of sodium iodoacetate versus background measurements taken before the pathology induction. The threshold of the pain sensitivity was evaluated by mechanical allodynia test using von Frey filaments (see Table 8).
For the purposes of the study, rat males weighing 150 to 200 g were selected. All the animals underwent acclimatization for 14 days. The animals were housed in a polycarbonate cages of 3H type manufactured by Charles River laboratories Inc according to COST R 53434-2009. 12-hours lighting regimen was maintained. The animals had access to food and water ad libitum. The pathology was induced by introduction of 50 μl solution containing 2 mg of sodium iodoacetate into a synovial cavity of the animal knee joints. Tactile allodynia induced by a mechanical irritation was evaluated using von Frey filaments weighing 0.06 to 23.96 g. The test was repeated five times for each filament at intervals of 1 to 2 s. The sensitivity threshold was considered as a minimum reaction threshold provoking paw withdrawal in one of five repeats.

[8] = further clinical trials, daily exposure of a therapeutically effective dose; cited from earlier work
Fgr = Fgr (Homo sapiens, UniProt P09769); test: human kinase enzymatic activity in vitro; format: biochemical; settings: 0.5 μmol/l
Syk kinase = Syk kinase (Homo sapiens, UniProt P43405); test: human kinase enzymatic activity in vitro; format: biochemical
Lyn = Lyn (Homo sapiens, UniProt P07948); test: human kinase enzymatic activity in vitro; format: biochemical; settings: 0.5 μmol/l
Blk = Blk (Homo sapiens, UniProt P51451); test: human kinase enzymatic activity in vitro; format: biochemical; settings: 0.5 μmol/l
Src-kinase family = test: human kinase enzymatic activity in vitro; format: biochemical; settings: 0.5 μmol/l
Method: as §1

Lck = Lck (Homo sapiens, UniProt P06239); test: human kinase enzymatic activity in vitro; format: biochemical; settings: 0.5 μmol/l
Fyn = Fyn (Homo sapiens, UniProt P06241); test: human kinase enzymatic activity in vitro; format: biochemical; settings: 0.5 μmol/l
Frk = Frk (Homo sapiens, UniProt P42685); test: human kinase enzymatic activity in vitro; format: biochemical; settings: 0.5 μmol/l
Hck = Hck (Homo sapiens, UniProt P08631); test: human kinase enzymatic activity in vitro; format: biochemical; settings: 0.5 μmol/l
Yes = Yes (Homo sapiens, UniProt P07947); test: human kinase enzymatic activity in vitro; format: biochemical; settings: 0.5 μmol/l
Chain of Yes (P07947 whole entry): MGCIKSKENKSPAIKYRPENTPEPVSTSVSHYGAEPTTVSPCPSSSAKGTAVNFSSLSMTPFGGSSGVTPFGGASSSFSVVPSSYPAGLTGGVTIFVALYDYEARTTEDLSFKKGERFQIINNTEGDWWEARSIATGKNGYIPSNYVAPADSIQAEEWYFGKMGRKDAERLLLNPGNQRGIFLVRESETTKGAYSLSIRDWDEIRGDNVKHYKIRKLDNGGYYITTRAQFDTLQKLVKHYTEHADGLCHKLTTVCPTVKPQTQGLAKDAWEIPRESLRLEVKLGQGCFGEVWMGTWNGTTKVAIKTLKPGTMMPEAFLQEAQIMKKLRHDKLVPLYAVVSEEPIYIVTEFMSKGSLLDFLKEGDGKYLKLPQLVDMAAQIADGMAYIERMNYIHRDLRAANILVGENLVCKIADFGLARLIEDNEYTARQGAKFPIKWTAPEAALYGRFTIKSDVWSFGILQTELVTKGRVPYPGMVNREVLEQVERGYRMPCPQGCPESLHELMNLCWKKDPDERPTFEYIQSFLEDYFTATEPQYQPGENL

Chain of human recombinant tyrosine c-Src kinase (P12931 whole entry): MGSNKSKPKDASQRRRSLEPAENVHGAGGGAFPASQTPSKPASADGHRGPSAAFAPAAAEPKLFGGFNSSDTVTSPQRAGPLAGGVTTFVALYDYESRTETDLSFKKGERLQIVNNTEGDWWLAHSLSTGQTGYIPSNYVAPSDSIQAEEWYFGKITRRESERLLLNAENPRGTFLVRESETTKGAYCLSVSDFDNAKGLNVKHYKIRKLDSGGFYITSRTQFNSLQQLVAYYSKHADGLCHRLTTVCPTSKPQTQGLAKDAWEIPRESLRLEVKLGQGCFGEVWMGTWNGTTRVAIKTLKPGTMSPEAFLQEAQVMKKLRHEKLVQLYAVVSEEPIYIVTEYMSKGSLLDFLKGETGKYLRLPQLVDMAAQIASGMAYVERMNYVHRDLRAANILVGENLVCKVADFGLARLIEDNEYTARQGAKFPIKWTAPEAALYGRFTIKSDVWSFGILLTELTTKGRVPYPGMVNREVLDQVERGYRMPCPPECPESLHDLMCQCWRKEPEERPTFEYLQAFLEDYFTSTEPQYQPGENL
Chain of Hck (P08631 whole entry): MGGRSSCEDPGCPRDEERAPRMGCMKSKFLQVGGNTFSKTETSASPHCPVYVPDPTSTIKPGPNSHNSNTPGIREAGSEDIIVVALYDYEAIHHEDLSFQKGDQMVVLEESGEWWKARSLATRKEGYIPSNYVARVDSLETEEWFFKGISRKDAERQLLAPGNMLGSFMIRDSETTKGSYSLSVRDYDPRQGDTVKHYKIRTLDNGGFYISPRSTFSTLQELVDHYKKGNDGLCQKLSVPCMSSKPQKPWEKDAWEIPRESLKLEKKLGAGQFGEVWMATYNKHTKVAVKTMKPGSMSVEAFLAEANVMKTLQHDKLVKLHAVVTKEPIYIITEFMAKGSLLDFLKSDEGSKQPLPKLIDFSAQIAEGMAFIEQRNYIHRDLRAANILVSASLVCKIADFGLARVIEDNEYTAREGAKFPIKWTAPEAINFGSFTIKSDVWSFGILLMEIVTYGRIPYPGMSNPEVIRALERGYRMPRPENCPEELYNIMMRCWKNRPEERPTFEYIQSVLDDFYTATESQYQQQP
Chain of Lyn (P07948 whole entry): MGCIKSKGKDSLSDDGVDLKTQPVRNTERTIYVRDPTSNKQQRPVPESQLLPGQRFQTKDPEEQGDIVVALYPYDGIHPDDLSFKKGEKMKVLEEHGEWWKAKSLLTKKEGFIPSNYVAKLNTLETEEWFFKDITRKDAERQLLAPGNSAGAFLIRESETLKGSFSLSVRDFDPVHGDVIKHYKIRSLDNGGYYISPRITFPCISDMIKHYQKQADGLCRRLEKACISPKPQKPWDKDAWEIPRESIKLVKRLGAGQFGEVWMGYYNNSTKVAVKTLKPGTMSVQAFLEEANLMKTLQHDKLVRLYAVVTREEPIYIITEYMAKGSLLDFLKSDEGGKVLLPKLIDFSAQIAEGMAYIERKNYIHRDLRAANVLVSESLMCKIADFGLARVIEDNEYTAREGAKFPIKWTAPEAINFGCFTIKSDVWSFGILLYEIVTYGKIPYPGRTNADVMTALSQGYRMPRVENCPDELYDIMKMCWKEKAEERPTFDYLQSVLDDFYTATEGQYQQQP
Chain of Blk (P51451 whole entry): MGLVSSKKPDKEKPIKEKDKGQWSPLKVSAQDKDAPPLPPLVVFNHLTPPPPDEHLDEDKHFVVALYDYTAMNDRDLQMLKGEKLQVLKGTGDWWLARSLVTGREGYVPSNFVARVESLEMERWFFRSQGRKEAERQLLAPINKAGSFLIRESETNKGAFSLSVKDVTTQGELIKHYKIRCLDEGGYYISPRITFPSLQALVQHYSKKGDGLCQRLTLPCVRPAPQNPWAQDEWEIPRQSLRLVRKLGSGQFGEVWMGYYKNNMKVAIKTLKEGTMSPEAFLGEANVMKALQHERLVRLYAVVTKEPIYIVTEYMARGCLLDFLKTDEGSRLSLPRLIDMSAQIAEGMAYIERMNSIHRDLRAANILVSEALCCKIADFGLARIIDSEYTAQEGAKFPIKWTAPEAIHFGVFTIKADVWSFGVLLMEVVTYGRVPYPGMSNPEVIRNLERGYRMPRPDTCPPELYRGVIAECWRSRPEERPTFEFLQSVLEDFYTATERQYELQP
Chain of Fgr (P09769 whole entry): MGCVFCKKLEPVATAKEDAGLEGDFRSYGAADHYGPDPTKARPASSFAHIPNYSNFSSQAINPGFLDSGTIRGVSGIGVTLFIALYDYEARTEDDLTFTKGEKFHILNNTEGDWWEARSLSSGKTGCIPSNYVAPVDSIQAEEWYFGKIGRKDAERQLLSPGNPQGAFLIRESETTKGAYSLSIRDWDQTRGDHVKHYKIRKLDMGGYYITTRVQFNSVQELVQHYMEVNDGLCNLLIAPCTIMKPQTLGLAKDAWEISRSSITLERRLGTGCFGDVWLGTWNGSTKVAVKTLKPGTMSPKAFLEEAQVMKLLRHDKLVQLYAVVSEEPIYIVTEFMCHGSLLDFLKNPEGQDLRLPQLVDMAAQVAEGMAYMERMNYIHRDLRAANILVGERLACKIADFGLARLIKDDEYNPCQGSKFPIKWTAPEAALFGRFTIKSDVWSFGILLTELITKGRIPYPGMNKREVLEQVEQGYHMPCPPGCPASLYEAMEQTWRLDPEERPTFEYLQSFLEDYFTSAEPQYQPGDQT
Chain of Lck (P06239 whole entry): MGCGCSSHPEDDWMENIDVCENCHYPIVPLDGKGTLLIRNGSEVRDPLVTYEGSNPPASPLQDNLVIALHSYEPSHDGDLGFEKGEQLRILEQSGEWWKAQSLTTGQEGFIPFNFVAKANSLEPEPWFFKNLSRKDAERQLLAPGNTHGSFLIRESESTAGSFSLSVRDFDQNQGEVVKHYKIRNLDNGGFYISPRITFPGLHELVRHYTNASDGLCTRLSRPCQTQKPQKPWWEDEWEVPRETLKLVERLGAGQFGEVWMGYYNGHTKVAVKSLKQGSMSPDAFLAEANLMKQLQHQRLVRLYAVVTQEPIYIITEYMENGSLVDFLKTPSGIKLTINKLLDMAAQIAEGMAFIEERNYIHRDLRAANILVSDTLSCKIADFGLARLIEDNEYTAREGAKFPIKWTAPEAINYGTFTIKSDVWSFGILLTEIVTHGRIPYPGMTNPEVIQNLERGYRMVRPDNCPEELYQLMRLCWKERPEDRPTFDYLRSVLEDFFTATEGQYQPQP
Chain of Fyn (P06241 whole entry): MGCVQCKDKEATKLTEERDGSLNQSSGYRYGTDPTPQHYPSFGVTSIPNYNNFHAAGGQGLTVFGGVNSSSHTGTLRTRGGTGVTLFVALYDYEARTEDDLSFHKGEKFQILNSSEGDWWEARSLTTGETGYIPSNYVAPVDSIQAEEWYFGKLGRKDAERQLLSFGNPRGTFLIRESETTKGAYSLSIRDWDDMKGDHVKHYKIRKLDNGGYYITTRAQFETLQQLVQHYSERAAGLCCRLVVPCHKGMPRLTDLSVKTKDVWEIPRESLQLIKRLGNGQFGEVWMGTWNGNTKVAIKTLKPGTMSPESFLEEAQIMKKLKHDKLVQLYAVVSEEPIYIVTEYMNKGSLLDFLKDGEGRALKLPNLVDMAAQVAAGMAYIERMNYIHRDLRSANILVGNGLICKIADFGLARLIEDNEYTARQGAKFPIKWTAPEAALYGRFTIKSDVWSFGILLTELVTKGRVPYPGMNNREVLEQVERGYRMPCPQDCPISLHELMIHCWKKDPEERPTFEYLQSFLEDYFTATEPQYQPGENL
Chain of Frk (P42685 whole entry): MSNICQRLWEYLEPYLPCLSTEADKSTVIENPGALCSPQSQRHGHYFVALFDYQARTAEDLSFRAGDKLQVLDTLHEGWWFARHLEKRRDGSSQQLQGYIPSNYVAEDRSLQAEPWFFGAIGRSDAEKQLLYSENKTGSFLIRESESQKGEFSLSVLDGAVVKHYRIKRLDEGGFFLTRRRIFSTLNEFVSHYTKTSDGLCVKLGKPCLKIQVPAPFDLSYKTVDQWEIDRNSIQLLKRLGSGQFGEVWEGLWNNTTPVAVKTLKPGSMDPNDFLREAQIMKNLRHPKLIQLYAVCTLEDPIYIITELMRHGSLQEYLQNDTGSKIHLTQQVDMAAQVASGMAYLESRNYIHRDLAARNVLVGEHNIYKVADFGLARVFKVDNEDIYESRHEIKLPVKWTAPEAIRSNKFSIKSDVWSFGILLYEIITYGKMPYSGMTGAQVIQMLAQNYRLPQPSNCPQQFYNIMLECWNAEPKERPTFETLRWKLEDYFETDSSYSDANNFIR

solubility ([1]; 1,4-Dioxane, 106 mg base in 7 ml, 100 °C (code S-1-4-D)): > 10000 µg/mL
solubility ([1]; Acetone, 97 mg base in 10 ml, 56 °C (code S-1-5-A1)): < 10000 µg/mL
solubility ([1]; Ethanol, 98 mg base in 10 ml, 78 °C (code S-1-2-C2)): < 10000 µg/mL
solubility ([1]; THF, 103 mg base in 10 ml, 66 °C (code S-1-3-T)): < 10000 µg/mL
solubility ([1]; n-Butanol, 101 mg base in 10 ml, 117 °C (code S-1-1-B)): < 10000 µg/mL
half-maximal inhibitory concentration ([2]; human c-Src kinase): within a nanomolar range
pKa [3]: 4
AUC0-t [4]: 55 ng·h/mL
AUC(0-inf) [4]: 73 ng·h/mL
Cmax [4]: 4.12 ng/mL
Tmax [4]: 4 h
Vz(/F) [4]: 6,982.6 l/kg
average daily concentration of the substance [4]: 4.8 nmol/L
half-life [4]: 11.8 h
maximum concentration of the substance in plasma [4]: 9.1 nmol/L
maximum plasma concentration relative to minimum effective concentration [4]: 100 times lower
Structure (SMILES): COc1cc(Nc2ncnc(Nc3ccc4c(n3)NC(=O)C(C)(C)O4)n2)cc(OC)c1OC [Compound 1, 2,2-dimethyl-6-((4-((3,4,5-trimethoxyphenyl)amino)-1,3,5-triazine-2-yl)amino)-2H-pyrido[3,2-b][1,4]oxazine-3(4H)-one]
effect on osteoclast-mediated resorption of the mineralized matrix (mature human osteoclasts; 48 hours cultivation): dose-dependent inhibitory effect
effective concentration (mature human osteoclasts; studies of Compound 1 biological activity): about 1 μmol/l

AUC0-t [6]: 2,339 ng · h/ml
AUC0-∞ [6]: 2,418 ng · h/ml
T1/2 [6]: 5.0 h
Tmax [6]: 1.5 h
Structure (SMILES): COc1cc(Nc2ncnc(Nc3ccc4c(n3)NC(=O)C(C)(C)O4)n2)cc(OC)c1OC.Cc1ccc(S(=O)(=O)O)cc1.O [salt monohydrate of 4-methylbenzenesulfonic acid and 2,2-dimethyl-6-((4-((3,4,5-trimethoxyphenyl)amino)-1,3,5-triazine-2-yl)amino)-2H-pyrido[3,2-b][1,4]oxazine-3(4H)-one Base (Polymorphic Modification A)]
effect on IL-1β-induced hypertrophic changes in chondrocytes (increase in aggrecan expression) ([5]; treatment for 3 days): statistically significant positive effect

Structure (SMILES): COc1cc(Nc2ncnc(Nc3ccc4c(n3)NC(=O)C(C)(C)O4)n2)cc(OC)c1OC.Cc1ccc(S(=O)(=O)O)cc1.O [salt monohydrate of 4-methylbenzenesulfonic acid and 2,2-dimethyl-6-((4-((3,4,5-trimethoxyphenyl)amino)-1,3,5-triazine-2-yl)amino)-2H-pyrido[3,2-1,4]oxazine-3(4H)-one Base (Polymorphic Modification B)]
effect on osteoclast-mediated resorption of the mineralized matrix (mature human osteoclasts; concentrations from 1.0 μM): statistically significant dose-dependent inhibitory effect

Structure (SMILES): O=P(O)(O)C(O)(Cn1ccnc1)P(=O)(O)O [Zoledronic acid, reference compound]
Reaction threshold value, % of control ([7]; 0.1 mg/kg subcutaneously, days 0, 3, 6, 9, 12, 15, 18, 21, 24, 27, day 14): 98 % of control
Reaction threshold value, % of control ([7]; 0.1 mg/kg subcutaneously, days 0, 3, 6, 9, 12, 15, 18, 21, 24, 27, day 21): 108 % of control
Reaction threshold value, % of control ([7]; 0.1 mg/kg subcutaneously, days 0, 3, 6, 9, 12, 15, 18, 21, 24, 27, day 28): 118 % of control

Structure (SMILES): CN1CCN(CCOc2cc(OC3CCOCC3)c3c(Nc4c(Cl)ccc5c4OCO5)ncnc3c2)CC1 [saracatinib]
toxicity [8]: high toxicity

inhibition at 0.5 µM (Fgr): > 50%
remaining activity at 0.5 µM (Fgr; read-out: residual activity): 23%
IC50 (Syk kinase): 0.04 µM
inhibition at 0.5 µM (Syk kinase; 0.5 μmol/l): > 50%
inhibition at 0.5 µM (Lyn): > 50%
remaining activity at 0.5 µM (Lyn; read-out: residual activity): 13%
inhibition at 0.5 µM (Blk): > 50%
remaining activity at 0.5 µM (Blk; read-out: residual activity): 20%
residual Src-kinase family activity (Src-kinase family): ≤ 25 % of control values
inhibition at 0.5 µM (Lck): > 50%
remaining activity at 0.5 µM (Lck; read-out: residual activity): 12%
inhibition at 0.5 µM (Fyn): > 50%
remaining activity at 0.5 µM (Fyn; read-out: residual activity): 25%
inhibition at 0.5 µM (Frk): > 50%
inhibition at 0.5 µM (Hck): > 50%
remaining activity at 0.5 µM (Hck; read-out: residual activity): 25%
IC50 [2]: 0.014 µM
inhibition at 0.5 µM ([2]; 0.5 μmol/l): > 50%
remaining activity at 0.5 µM ([2]; 0.5 μmol/l, read-out: residual activity): 6%
inhibition at 0.5 µM (Yes): > 50%
remaining activity at 0.5 µM (Yes; read-out: residual activity): 12%
Structure (SMILES): COc1cc(Nc2ncnc(Nc3ccc4c(n3)NC(=O)C(C)(C)O4)n2)cc(OC)c1OC.Cc1ccc(S(=O)(=O)O)cc1 [salt of 4-methylbenzenesulfonic acid and 2,2-dimethyl-6-((4-((3,4,5-trimethoxyphenyl)amino)-1,3,5-triazine-2-yl)amino)-2H-pyrido[3,2-b][1,4]oxazine-3(4H)-one base]
increase of aggrecan production ([5]; induced hypertrophic changes in chondrocytes): more than four-time increase

Structure (SMILES): COc1ccc2cc([C@H](C)C(=O)O)ccc2c1 [Naproxen, reference compound]
Reaction threshold value, % of control ([7]; 50 mg/kg intragastric, days 14, 21, 28, day 14): 82 % of control
Reaction threshold value, % of control ([7]; 50 mg/kg intragastric, days 14, 21, 28, day 21): 102 % of control
Reaction threshold value, % of control ([7]; 50 mg/kg intragastric, days 14, 21, 28, day 28): 96 % of control
